{
  "source": "paper PMC12094946",
  "about": "“Evidence of focusing the MHC class I immunopeptidome by tapasin” (Frontiers in Immunology, 2025)",
  "key": {"[1]": {"biological_target": "HLA-B*44:02 (Homo sapiens, UniProt P01889, A223V/A65T/A93T/A95T/D201E/D98Y/E176V/E187L/E204Q/E69K/G107R/H137Y/K202T/L105A/L119I/N104T/N87E/Q56L/Q94N/R106L/R155S/R180D/S101N/S121R/S35A/S48T/T118I/V36M/W191S/Y140D/Y91S)", "experiment": "Immunopeptidome analysis (W6/32 isolation, LC-MS/MS) of 721.220 cells reconstituted with human tapasin", "format": "cell-based", "conditions": "sheet Overlaps; 1/0 flag; 5% peptide FDR", "protocol": "(§1) Approximately 5x10^8 cells were grown for each cell line, and cell pellets were snap frozen. Cell lysis and MHC-I peptide isolation were performed as previously described in detail ([30]). Briefly, cell pellets were lysed by cryomilling and incubation in a non-denaturing lysis buffer (0.5% Igepal CA-630, 50 mM Tris pH 8.0, 150 mM NaCl, 1 x Roche Complete protease inhibitor cocktail). MHC-I complexes were captured from the lysate using 7.5 mg of anti-MHC-I antibody, W6/32, immobilized on protein A Sepharose and subsequently dissociated with 10% acetic acid. The peptides were fractionated and separated from β2m and heavy chain components by reversed-phase high performance liquid chromatography (RP-HPLC). The peptide containing fractions were concentrated and chromatographically distant fractions were combined to generate nine pools, reconstituted in 15 µL 0.1% formic acid containing 500 fmol iRT reference peptides ([31]). Pools were analyzed by liquid chromatography-tandem mass spectrometry (LC-MS/MS) using a SCIEX 5600+ mass spectrometer, equipped with a NanoUltra cHiPLC system (Eksigent) and a Nanospray III ion source. Peptides were trapped on a cHiPLC trap column (3 µm, ChromXP C18CL, 120 Å, 0.5 mm x 200 µm), by loading at 5 µL/min in 0.1% formic acid, 2% acetonitrile, prior to elution over a cHiPLC column (3 µm, ChromXP C18CL, 120 Å, 15 cm x 75 µm) at 300 nL/min with increasing acetonitrile over 75 minutes. The mass spectrometer was operated as follows: ion spray voltage 2400 V, curtain gas 25 l/min, ion source gas 20 l/min, interface heater temperature 150°C, MS1 range 200-1800, MS1 accumulation time 200 ms, MS2 range 60-1800, and MS2 accumulation time 150 ms. The top 20 ions meeting the following criteria were selected for MS/MS fragmentation with rolling collision energy: >200 Da, charge state +2 to +5, >40 cps, dynamic exclusion 30 seconds after two occurrences. Mass spectra were interpreted by database search against the Uniprot/SwissProt ([32]) reviewed human proteome accessed October 2018 using PEAKS Studio XPRO (10.6 build, Bioinformatics Solutions Inc.) and a contaminant database contain the iRT reference peptide sequences using the following parameters: Instrument Triple TOF, fragmentation CID, parent mass error tolerance 25ppm, fragment mass error tolerance 0.1Da, enzyme none, digest mode unspecific, variable modifications Oxidation (M) +15.99 and Deamidation (NQ) +0.98, max variable modifications per peptide 3, False discovery rate (FDR) estimation enabled. A 5% peptide FDR was applied. Peptides identified from similar isolations of MHC class II from closely related 721.221 derived cell lines were excluded from downstream analyses."}, "[2]": {"biological_target": "HLA-B*44:05 (Homo sapiens, UniProt P01889, A223V/A65T/A93T/A95T/D201E/D98Y/E176V/E187L/E204Q/E69K/G107R/H137Y/K202T/L105A/L119I/N104T/N87E/Q56L/Q94N/R106L/R155S/R180D/S101N/S121R/S35A/S48T/T118I/V36M/W191S/Y91S)", "experiment": "Immunopeptidome analysis (W6/32 isolation, LC-MS/MS) of 721.220 cells reconstituted with human tapasin", "format": "cell-based", "conditions": "sheet Overlaps; 1/0 flag; 5% peptide FDR", "protocol": "as §1"}, "[3]": {"system": "HLA-B*44:05-W147A", "experiment": "Immunopeptidome analysis (W6/32 isolation, LC-MS/MS) of 721.220 cells reconstituted with human tapasin", "format": "cell-based", "conditions": "sheet Overlaps; 1/0 flag; 5% peptide FDR", "protocol": "as §1"}, "[4]": {"biological_target": "HLA-A*02:01-fos (Homo sapiens, UniProt P04439, D140Y/D185E/D98H/E176V/E277Q/G131W/G231S/I119V/I121R/I166T/I218V/L300P/L318F/N151K/N90K/P208A/P217A/Q86G/Q94H/R138H/R169H/T345S)", "experiment": "In vitro peptide competition experiments (fluorescence polarization)", "procedure": "Peptide competition experiments were prepared in PBS supplemented with 0.5 mg/ml bovine serum albumin (BSA) and a final concentration of 1.67% DMSO. The indicated concentrations of MHC-I molecules were supplemented with 20x excess β2-microglobulin and exposed to 366 nm light for 20 minutes at 4°C. Twenty µl of the UV exposed proteins were added to a 96 well microplate, with each well containing 40 µl of a titration (0 - 83.33 µM) of an unlabeled peptide competitor, 2–3 nM of the appropriate TAMRA labelled peptide, and 300 nM tapasin-jun-ERp57 (HLA-B*44 and HLA-B*35 experiments), or 300 nM TAPBPR (HLA-A*02:01 experiments) or neither tapasin-jun-ERp57 or TAPBPR. Samples were prepared in duplicate and incubated overnight at 25°C.\nHLA-B*44:05 and HLA-B*44:05-W147A proteins were used at 160 nM with 2 nM EEFGK*AFSF peptide. HLA-B*35:01-fos and HLA-B*35:03-fos proteins were used at 225 nM with 3 nM YPLK*EQHGM peptide.\nFluorescence polarization measurements were taken using an I3x (Molecular Devices) with rhodamine detection cartridge."}},
  "data": [
    {"substance": "AEDALHNLDRKW [peptide identified within the immunopeptidomes]", "values": [
      {"measurement": "B4402 (peptide identified in immunopeptidome)", "setting": "[1]", "value": 1},
      {"measurement": "B4405 (peptide identified in immunopeptidome)", "setting": "[2]", "value": 1},
      {"measurement": "B4405 W147A (peptide identified in immunopeptidome)", "setting": "[3]", "value": 0}
    ]},
    {"substance": "EEVDLSKDIQHW [peptide identified within the immunopeptidomes]", "values": [
      {"measurement": "B4402 (peptide identified in immunopeptidome)", "setting": "[1]", "value": 1},
      {"measurement": "B4405 (peptide identified in immunopeptidome)", "setting": "[2]", "value": 1},
      {"measurement": "B4405 W147A (peptide identified in immunopeptidome)", "setting": "[3]", "value": 0}
    ]},
    {"substance": "AEIGEGAYGKVF [peptide identified within the immunopeptidomes]", "values": [
      {"measurement": "B4402 (peptide identified in immunopeptidome)", "setting": "[1]", "value": 1},
      {"measurement": "B4405 (peptide identified in immunopeptidome)", "setting": "[2]", "value": 1},
      {"measurement": "B4405 W147A (peptide identified in immunopeptidome)", "setting": "[3]", "value": 0}
    ]},
    {"substance": "FLPSDC^TAMRAFPSV", "values": [
      {"measurement": "fold lower than unlabeled FLPSDCFPSV", "setting": "[4]; index peptide IC50 compared with IC50 of unlabeled FLPSDCFPSV", "value": "approximately 20 fold"},
      {"measurement": "IC50 value of the index peptide", "setting": "[4]; suggested by the divergent effects of TAPBPR on the ability of peptides to compete for binding to HLA-A*02:01", "value": "around 3 µM"}
    ]},
    {"substance": "AEMDGAAAAKQVM [peptide identified within the immunopeptidomes]", "values": [
      {"measurement": "B4402 (peptide identified in immunopeptidome)", "setting": "[1]", "value": 1},
      {"measurement": "B4405 (peptide identified in immunopeptidome)", "setting": "[2]", "value": 1},
      {"measurement": "B4405 W147A (peptide identified in immunopeptidome)", "setting": "[3]", "value": 0}
    ]},
    {"substance": "SELALESQTKTY [peptide identified within the HLA-B*44:02 immunopeptidome]", "values": [
      {"measurement": "B4402 (peptide identified in immunopeptidome)", "setting": "[1]", "value": 1},
      {"measurement": "B4405 (peptide identified in immunopeptidome)", "setting": "[2]", "value": 0},
      {"measurement": "B4405 W147A (peptide identified in immunopeptidome)", "setting": "[3]", "value": 0}
    ]}
  ]
}
